The values that follow come from PubChem BioAssay AID588620 (NMMLSC, 2011).

Molecules are shown by their SMILES. The source made the active and inactive calls.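 The calls were made as follows: active = fitted half-maximal concentration below 30 µM for cell fluorescence in pump-free yeast, so likely self-fluorescent; inactive = the rest.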

Tested on in one experiment: not listed separately
The experiment can be described thus: concentration-dependent intrinsic compound fluorescence, S. cerevisiae AD/pABC3, flow cytometry, Cherry Pick1 hits, artefact control for antifungal efflux pump inhibitor project, dose response (AID 588620).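 Also: red emission of unstained cells excited at 488 nm measured in PE-Texas Red channel.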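 As to fluorescence response, % of control: cell median fluorescence as percent of DMSO wells so 100% equals vehicle baseline.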 Particulars: S. cerevisiae AD/pABC3 compound autofluorescence, flow cytometry; at 33.1 µM (top of the series). A general note: A flow cytometer gives signals particle by particle.
As to `CSc1ccccc1NC(=O)c1cc(-c2ccc3c(c2)OCO3)on1`, the fluorescence response, % of control is 101% (inactive).
For `Cc1ccc2c(c1)[C@H]1[C@H](CO2)[C@H](c2ccccc2)[C@]2(C)C(=O)Nc3cc(F)c(F)cc3C(=O)N12`, the fluorescence response, % of control was 90.5% (inactive).
For `Cc1ccc(C(=O)N2CCC3(CC2)Oc2ccc(Cl)cc2C(=O)C32CC(c3ccc(Cl)cc3)=NO2)s1` (stereo not given), the fluorescence response, % of control was 94.5% (inactive).

The next experiment relates to S. cerevisiae AD/pABC3 compound autofluorescence, flow cytometry. Described as above.
Conditions: not given
As a reminder, the EC50 is the concentration that produces a half-maximal response. Turning to `COc1ccc(OC)c2c1C(=O)C(Cl)=C(Cl)C2=O`, the EC50 was 0.495 µM.
Take `COc1cc2sc(-c3ccccc3OC)c(-c3ccc(OCCN4CCOCC4)cc3)c2cc1OC`: the EC50 was 17.2 µM.
On to `C[C@@]12C(=O)Nc3cc(F)c(F)cc3C(=O)N1[C@H]1c3cc(Cl)ccc3OC[C@@H]1[C@@H]2c1ccccc1`, for which the EC50 was 12.3 µM.
For the compound `Cc1ccc2nc(/C(C#N)=C/c3ccc(O)c(O)c3)[nH]c2c1`, the EC50 was 5.32 µM.
For `Cc1ccc(/C=C2\CCC3=C2OC(N)=C(C#N)C3c2ccc(C)cc2)cc1` (stereo not given), the EC50 is 9.04 µM.
As for `O=[N+]([O-])c1ccc(N2N=C(c3ccco3)CC2c2ccccc2)cc1` (stereo not given), the EC50 was 18.3 µM.
Still for that read-out and setting: next, `CCOc1ccc(NC(=O)CSc2nnc(Cc3cccn3C)n2-c2ccc(F)cc2)cc1`: 13.6 µM; `O=C1/C(=C/c2ccco2)Oc2c1ccc(O)c2CN1CCCCC1`: 6.07 µM.
The same measure, in the same setting: for `C=CCn1c(=O)[nH]c2nc3cc(N=CN(C)C)c(C)cc3nc2c1=O` the value was 5.13 µM.
Still for that read-out and setting: next, `Cc1nn(Cc2cccc(C(=O)NC34CC5CC(CC(C5)C3)C4)c2)c(C)c1Br`: 4.45 µM; `COc1ccccc1-c1nc(C(N)=O)c2[nH]c(=O)n(-c3cccc(C)c3)c2n1`: 10.9 µM; `Cc1nc2ccccc2n1CCc1nc2c3ccccc3nc(SCC(=O)NCc3ccco3)n2n1`: 12.2 µM.
